The values below come from patent publication US20050282819A1, “Heterocyclic substituted indane derivatives and related compounds for the treatment of schizophrenia” (priority 2003, published 2005).

As usually defined, the melting point is the temperature of the solid-liquid transition. As a reminder, the Ki is a measure of affinity in units of concentration, obtained from inhibition or displacement.

T2 sequence (P28223 whole entry): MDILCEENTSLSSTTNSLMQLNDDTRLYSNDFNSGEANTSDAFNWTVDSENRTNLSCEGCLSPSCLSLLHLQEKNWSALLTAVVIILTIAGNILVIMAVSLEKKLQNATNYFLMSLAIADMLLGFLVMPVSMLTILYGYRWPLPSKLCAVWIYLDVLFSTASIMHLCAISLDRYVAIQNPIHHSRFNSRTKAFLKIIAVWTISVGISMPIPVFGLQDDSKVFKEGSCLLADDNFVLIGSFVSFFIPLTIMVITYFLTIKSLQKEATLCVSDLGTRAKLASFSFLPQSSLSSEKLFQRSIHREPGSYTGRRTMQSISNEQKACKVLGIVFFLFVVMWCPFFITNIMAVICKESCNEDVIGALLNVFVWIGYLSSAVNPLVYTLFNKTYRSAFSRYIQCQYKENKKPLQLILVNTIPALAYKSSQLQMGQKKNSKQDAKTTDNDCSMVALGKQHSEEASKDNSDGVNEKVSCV

Test system in one series: not given
Test: not given
For the molecule `CC1(C)C(=O)C(C)(C)c2cc(CCCN3CCN(c4noc5ccccc45)CC3)ccc21.CS(=O)(=O)O`, the melting point was 200 to 203 °C (dec.).

For `CNC1C(C)(C)c2ccc(CCN3CCN(c4nsc5ccccc45)CC3)cc2C1(C)C.CS(=O)(=O)O` (stereo not shown), the melting point is 200 to 203 °C (dec.).

In turn, `CC(=O)N(C)C1C(C)(C)c2ccc(CCN3CCN(c4nsc5ccccc45)CC3)cc2C1(C)C.CS(=O)(=O)O` (stereo not shown) registered a melting point of 248 to 250 °C.

Molecule `CC(=O)NC1C(C)(C)c2ccc(CCN3CCN(c4noc5ccccc45)CC3)cc2C1(C)C.CS(=O)(=O)O` (stereo not shown) registered a melting point of 197 to 205 °C.

On to `CCNC1Cc2cc(CCN3CCN(c4nsc5ccccc45)CC3)ccc2C1(C)C.CS(=O)(=O)O` (stereo not shown), for which the melting point was 115 to 125 °C (dec.).

`CCN(C(C)=O)C1Cc2cc(CCN3CCN(c4nsc5ccccc45)CC3)ccc2C1(C)C.CS(=O)(=O)O` (stereo not shown) yielded a melting point of 60 to 70 °C. Still for that read-out and setting: to `CCNC1Cc2ccc(CCN3CCN(c4nsc5ccccc45)CC3)cc2C1(C)C.CS(=O)(=O)O` (stereo not shown) belongs 125 to 135 °C; to `CCN(C(C)=O)C1Cc2ccc(CCN3CCN(c4nsc5ccccc45)CC3)cc2C1(C)C.CS(=O)(=O)O` (stereo not shown), 62 to 72 °C; to `CC1(C)C(=O)C(C)(C)c2cc(CCN3CCN(c4noc5ccccc45)CC3)ccc21.CS(=O)(=O)O`, 259 to 261 °C.

`CCOC(CN1CCN(c2noc3ccccc23)CC1)c1ccc2c(c1)C(C)(C)C(=O)C2(C)C.CS(=O)(=O)O` (stereo not shown) gave a melting point of 219 to 222 °C. On the same count and under the same terms, to `CC1(C)C(=O)C(C)(C)c2cc(CCCN3CCN(c4nsc5ccccc45)CC3)ccc21.CS(=O)(=O)O` belongs 144 to 147 °C; to `CC(=O)NC1Cc2ccc(CCN3CCN(c4nsc5ccccc45)CC3)cc2C1(C)C` (racemic), 62 to 72 °C. Still for that read-out and setting: to `CC(=O)NC1Cc2cc(CCN3CCN(c4nsc5ccccc45)CC3)ccc2C1(C)C` (racemic) [Example 115, N-{5-[2-(4-BENZO[D]ISOTHIAZOL-3-YL-PIPERAZIN-1-YL)-ETHYL]-1,1-DIMETHYL-INDAN-2-YL}-ACETAMIDE] belongs 58 to 68 °C. The same measure, in the same setting: to `CC1(C)C(=O)C(C)(C)c2cc(C(O)CN3CCN(c4nsc5ccccc45)CC3)ccc21` (stereo not shown) [Example 77, 5-[2-(4-BENZO[D]ISOTHIAZOL-3-YL-PIPERAZIN-1-YL)-1-HYDROXYETHYL]-1,1,3,3-TETRAMETHYL-INDAN-2-ONE] belongs 189 to 191 °C.

Turning to `CC1(C)C(=O)C(C)(C)c2cc(C(F)CN3CCN(c4nsc5ccccc45)CC3)ccc21` (stereo not shown) [Example 78, 5-[2-(4-BENZO[D]ISOTHIAZOL-3-YL-PIPERAZIN-1-YL)-1-FLUORO-ETHYL]-1,1,3,3-TETRAMETHYL-INDAN-2-ONE], the melting point was 64 to 73 °C. On the same count and under the same terms, to `CC1(C)c2ccc(C(F)CN3CCN(c4nsc5ccccc45)CC3)cc2C(C)(C)C1O` (stereo not shown) [Example 79, 5-[2-(4-BENZO[D]ISOTHIAZOL-3-YL-PIPERAZIN-1-YL)-1-FLUORO-ETHYL]-1,1,3,3-TETRAMETHYL-INDAN-2-OL] belongs 49 to 54 °C; to `CC1(C)c2ccc(C(O)CN3CCN(c4nsc5ccccc45)CC3)cc2C(C)(C)C1O` (stereo not shown) [Example 80, 5-[2-(4-BENZO[D]ISOTHIAZOL-3-YL-PIPERAZIN-1-YL)-1-HYDROXY-ETHYL]-1,1,3,3-TETRAMETHYL-INDAN-2-OL], 88 to 97 °C. `CC1(C)C(=O)C(C)(C)c2cc(CCN3CCN(c4nsc5ccccc45)CC3)ccc21` [Example 82, 5-[2-(4-BENZO[D]ISOTHIAZOL-3-YL-PIPERAZIN-1-YL)-ETHYL]-1,1,3,3-TETRAMETHYL-INDAN-2-ONE] returned a melting point of 122 to 126 °C. Same read-out and setting: the same measure for `CC1(C)c2ccc(CCN3CCN(c4nsc5ccccc45)CC3)cc2C(C)(C)C1O` (stereo not shown) [Example 83, 5-[2-(4-BENZO[D]ISOTHIAZOL-3-YL-PIPERAZIN-1-YL)-ETHYL]-1,1,3,3-TETRAMETHYL-INDAN-2-OL]: 47 to 49 °C.

Molecule `CNC(CN1CCN(c2nsc3ccccc23)CC1)c1ccc2c(c1)C(C)(C)C(O)C2(C)C` (stereo not shown) [Example 85, 5-[2-(4-BENZO[D]ISOTHIAZOL-3-YL-PIPERAZIN-1-YL)-1-METHYLAMINO-ETHYL]-1,1,3,3-TETRAMETHYL-INDAN-2-OL] yielded a melting point of 96 to 101 °C. `CC1(C)c2ccc(C(O)CN3CCN(c4n[nH]c5ccccc45)CC3)cc2C(C)(C)C1O` (stereo not shown) [Example 86, 5-{1-HYDROXY-2-[4-(1H-INDAZOL-3-YL)-PIPERAZIN-1-YL]-ETHYL}-1,1,3,3-TETRAMETHYL-INDAN-2-OL]: the melting point was in the range of 104 to 110 °C.

Molecule `CC(=O)NC1C(C)(C)c2ccc(CCN3CCN(c4nsc5ccccc45)CC3)cc2C1(C)C` (stereo not shown) [Example 109, N-{5-[2-(4-BENZO[D]ISOTHIAZOL-3-YL-PIPERAZIN-1-YL)-ETHYL]-1,1,3,3-TETRAMETHYL-INDAN-2-YL}-ACETAMIDE] gave a melting point of 75 to 80 °C.

Another series deals with T1, dopamine D2 receptor (Homo sapiens, UniProt P14416).
T1 construct: expressed in transfected cells; host or cells: CHO cells (CHO-hD2L), membrane preparation
T1 sequence (P14416 whole entry): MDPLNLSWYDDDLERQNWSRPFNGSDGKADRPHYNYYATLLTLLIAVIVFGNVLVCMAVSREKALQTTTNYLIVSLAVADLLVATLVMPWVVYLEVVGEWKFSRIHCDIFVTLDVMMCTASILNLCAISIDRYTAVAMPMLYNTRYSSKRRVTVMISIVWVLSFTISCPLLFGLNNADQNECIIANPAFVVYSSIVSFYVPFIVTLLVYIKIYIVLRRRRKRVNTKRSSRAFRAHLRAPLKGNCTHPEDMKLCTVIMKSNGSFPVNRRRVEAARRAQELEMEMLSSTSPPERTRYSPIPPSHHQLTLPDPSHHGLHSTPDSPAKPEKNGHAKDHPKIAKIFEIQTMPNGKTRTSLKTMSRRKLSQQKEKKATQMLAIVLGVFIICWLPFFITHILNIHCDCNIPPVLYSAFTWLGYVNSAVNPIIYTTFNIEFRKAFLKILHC
Nature of the series: Dopamine D2 receptor binding ([3H]spiperone, CHO-hD2L membranes). The text has this: (§1) The ability of the compounds of this invention to bind to the dopamine D2 and serotonin 2A (5HT2A) receptors can be determined using conventional radioligand receptor binding assays. All receptors can be heterologously expressed in cell lines and experiments conducted in membrane preparations from the cell lines using procedures outlined below. IC50 concentrations can be determined by nonlinear regression of concentration-dependent reduction in specific binding. The Cheng-Prussoff equation can be used to convert the IC50 to Ki concentrations.
Dopamine D2 Receptor Binding:
[^3H]Spiperone binding to a membrane preparation from CHO-hD2L cells is carried out in 250 μl of 50 mM Tris-HCl buffer containing 100 mM NaCl, 1 mM MgCl2 and 1% DMSO at pH 7.4. Duplicate samples containing (in order of addition) the test compounds, 0.4 nM [^3H]spiperone and approximately 12 μg protein are incubated for 120 minutes at room temperature. Bound radioligand is separated by rapid filtration under reduced pressure through Whatman GF/B glass fiber filters previously treated with 0.3% polyethyleneimine. Radioactivity retained on the filter is determined by liquid scintillation spectrophotometry.
The title compounds of Examples 1-120 were tested using the above assay, in which specific binding determined in the presence of 1 mM haloperidol was 95%.
In turn, `O=C(Cc1ccoc1)NC1CCc2ccc(CCN3CCN(c4nsc5ccccc45)CC3)cc21` (stereo not shown) [Example 56, N-{6-[2-(4-BENZO[D]ISOTHIAZOL-3-YL-PIPERAZIN-1-YL)-ETHYL]-INDAN-1-YL}-2-FURAN-3-YL-ACETAMIDE] had a Ki of 5 nM.

With `O=C(NC1CCc2ccc(CCN3CCN(c4nsc5ccccc45)CC3)cc21)c1ccno1` (stereo not shown) [Example 58, ISOXAZOLE-5-CARBOXYLIC ACID {6-[2-(4-BENZO[D]ISOTHIAZOL-3-YL-PIPERAZIN-1-YL)-ETHYL]-INDAN-1-YL}-AMIDE], the affinity corresponds to a Ki of 3 nM.

As to `CC(=O)N[C@H]1Cc2ccc(CCN3CCN(c4nsc5ccccc45)CC3)cc2C1` [Example 60, (S)(+)-N-{5-[2-(4-BENZO[D]ISOTHIAZOL-3-YL-PIPERAZIN-1-YL)-ETHYL]-INDAN-2-YL}-ACETAMIDE], the affinity, expressed as Ki, was 9 nM.

The next series has as its target T2, serotonin 2A (5HT2A) receptor (Homo sapiens, UniProt P28223).
T2 construct: expressed in transfected cells; host or cells: Swiss-h5HT2A cells, membranes
Nature of the series: Serotonin 2A binding ([3H]ketanserin, Swiss-h5HT2A cell membranes).
Source text: as §1
[^3H]Ketanserin binding to Swiss-h5HT2A cell membranes can be carried out in 250 μl of 50 mM Tris-HCl buffer pH 7.4. Duplicate samples containing (in order of addition) test compounds, 1.0 nM [^3H]ketanserin, and approximately 75 μg protein are incubated for 120 minutes at room temperature. Bound radioligand is separated by rapid filtration under reduced pressure through Whatman GF/B glass fiber filters previously treated with 0.3% polyethyleneimine. Radioactivity retained on the filter is determined by liquid scintillation spectrophotometry.
`O=C(Cc1ccoc1)NC1CCc2ccc(CCN3CCN(c4nsc5ccccc45)CC3)cc21` (stereo not shown) [Example 56, N-{6-[2-(4-BENZO[D]ISOTHIAZOL-3-YL-PIPERAZIN-1-YL)-ETHYL]-INDAN-1-YL}-2-FURAN-3-YL-ACETAMIDE]: the Ki was determined as 0.55 nM. Same read-out and setting: the same measure for `O=C(NC1CCc2ccc(CCN3CCN(c4nsc5ccccc45)CC3)cc21)c1ccno1` (stereo not shown) [Example 58, ISOXAZOLE-5-CARBOXYLIC ACID {6-[2-(4-BENZO[D]ISOTHIAZOL-3-YL-PIPERAZIN-1-YL)-ETHYL]-INDAN-1-YL}-AMIDE]: 0.03 nM; for `CC(=O)N[C@H]1Cc2ccc(CCN3CCN(c4nsc5ccccc45)CC3)cc2C1` [Example 60, (S)(+)-N-{5-[2-(4-BENZO[D]ISOTHIAZOL-3-YL-PIPERAZIN-1-YL)-ETHYL]-INDAN-2-YL}-ACETAMIDE]: 0.09 nM.
